# Measured values taken from publication PMC7036544, “Persistent candida arthritis successfully treated with micafungin instillation and surgery. A case report” (Medical Mycology Case Reports, 2019).
# Starred links: 1 amine or outer side, 2 acyl side, 3 side chain; linkers in the order of their positions; H or OH if unused. Positions of bridges follow the written chain, without caps; N, C: chain ends. Non-standard residues stand in square brackets, D forms with d. Residues, ends and D or L forms follow the SMILES beside them. *: point of attachment. hTyr(3S-OH,4S-OH,3'-OSO3H) = N[C@H](C(=O)O)[C@H](O)[C@@H](O)c1ccc(O)c(OS(=O)(=O)O)c1; Orn(4R-OH,5R-OH) = O=C([C@H](C[C@@H](O)[C@@H](O)N[*:3])N[*:1])[*:2]; Pro(3S-OH,4S-Me) = C[C@H]1CN[C@H](C(=O)O)[C@H]1O; X1 = CCCCCOc1ccc(-c2cc(-c3ccc(C(=O)*)cc3)no2)cc1; Gln(3R-OH) = NC(=O)C[C@@H](O)[C@H](N)C(=O)O; Hyp = O=C(O)[C@@H]1C[C@@H](O)CN1
# Key:
# C. krusei knee arthritis = experiment: Clinical outcome of C. krusei knee arthritis; format: in vivo, human; details: one patient; instillation of micafungin in the knee plus intravenous micafungin and arthroscopic debridement
# From the text: A week later, the patient was readmitted for a second course of chemotherapy and amphotericin-B oral solution was given to prevent a new episode of translocation of C. krusei. During this hospital stay they hit their left knee on the side of the bed. Their knee continued to be painful and as a knee effusion was noted three days after injury, the orthopedic surgeon was consulted. On physical examination a large effusion of their left knee was found. The joint was not visibly red, but was warm on palpation. Their temperature was 38.4° Celsius. A plain knee radiograph of the knee was normal. An aspiration of the affected knee was performed and the joint fluid was sent for culture, this day was considered as day 0. Day 1 the joint aspiration grew C. krusei for which intravenous micafungin was restarted at a dose of 100mg twice daily. As the patient was deeply thrombopenic as well as neutropenic at that time, no arthroscopic drainage and lavage was performed but instead the knee was repeatedly drained by needle aspiration. On the day of the first needle aspiration of the knee and for the next 10 days, blood cultures were positive for C. krusei as well. Furthermore, repeated needle aspirations of the knee continued to grow C. krusei. An echocardiography at day 6 was normal. […]
# [1] = healthy subjects; cited from earlier work
# C. krusei = experiment: MIC of micafungin for the patient's C. krusei; format: cell-based, Candida krusei; details: isolate of the patient
# [2] = Micafungin concentration in joint (synovial) fluid of the patient after intra-articular instillation; format: in vivo, human; details: one patient; day 19; joint fluid aspirated 24 hours after intra-articular instillation of 3mg micafungin (trough); IA 3mg OD day 17 – day 24; single measurement
# Procedure: (§1) C. krusei has been identified with the use of CHROMagar™ with subsequent identification by Maldi-TOF, with database MALDI BDAL Database version 8.0. Micafungin concentrations were measured (laboratory of pharmacy, University Hospital Nijmegen, the Netherlands) in serum and joint fluid. The concentrations in serum 12 hours after the administration of 100mg intravenously at day 13 and 16 of therapy were 4.5 and 1.5mg/L respectively and concentration in synovial fluid 24 hours after installation of 3mg of micafungin in the knee was 11mg/L at day 19, as well presented in Table 1. Reference concentrations of micafungin in serum derived from 2 studies in critically ill patients trough level 1.4–3.1 mg/L were described. […] Administration of 100mg once daily results in trough serum concentration levels of 2 mg-L [14]. In hematology patients reference concentrations after intravenous micafungin are available as well [15].
# [3] = Micafungin concentration in serum of the patient; format: in vivo, human; details: one patient, single measurement
# Procedure: as §1, with “serum 12 hours after the administration of 100mg intravenously at day 13 and 16 of therapy were 4.5 and 1.5mg/L respectively” left out
# [4] = reconstitution in NaCl 0.9%; cited from earlier work
# From the text: Synovial fluid is a transudate of plasma, so dissolution of micafungin in synovial fluid will be likely. Moreover, diffusion from plasma to the synovial fluid will occur. Unfortunately, data about the extent of diffusion from plasma to the synovial fluid are not available. The possible side effects as well as the possible toxic effects on cartilage of micafungin when administered directly into a joint are unknown. However, we decided to administer micafungin through direct intra-articular instillation as, despite prolonged high-dose intravenous micafungin therapy, blood as well as synovial cul ...
# [5] = critically ill patients, 2 studies; cited from earlier work
# [6] = Local toxicity in the knee joint after intra-articular micafungin; format: in vivo, human; details: one patient; intra-articular instillation, local concentration 11mg/l
structure (smiles),measurement,setting,value
"CCCCCOc1ccc(-c2cc(-c3ccc(C(=O)N[C@H]4C[C@@H](O)[C@@H](O)NC(=O)[C@@H]5[C@@H](O)[C@@H](C)CN5C(=O)[C@H]([C@H](O)CC(N)=O)NC(=O)[C@H]([C@H](O)[C@@H](O)c5ccc(O)c(OS(=O)(=O)O)c5)NC(=O)[C@@H]5C[C@@H](O)CN5C(=O)[C@H]([C@@H](C)O)NC4=O)cc3)no2)cc1 [micafungin] (X1-[Orn(4R-OH,5R-OH)]T[Hyp][hTyr(3S-OH,4S-OH,3'-OSO3H)][Gln(3R-OH)][Pro(3S-OH,4S-Me)]; lactam 1-C)",Clinical outcome,C. krusei knee arthritis,completely recovered
same,Half-life,[1],15 h
same,Volume of distribution,[1],"0,2 L/kg"
same,MIC of the C. krusei,C. krusei,0.125 µg/mL
same,Micafungin concentration in synovial fluid (joint),[2],11 mg/L
same,Micafungin concentration in serum,"[3]; 12 hours after administration of 100mg intravenously, day 16 of therapy",1.5 mg/L
same,Micafungin concentration (trough serum),"[3]; day 14, IV 100mg BID day 1 – day 15",4.5 mg/L
same,Micafungin concentration (trough serum),"[3]; day 17 (day of surgery), IV 200mg OD day 16 – day 32",1.5 mg/L
same,pH after reconstitution,[4],5–7
same,"Reference concentration of micafungin in serum, trough level",[5],1.4 to 3.1 mg/L
same,Local toxicity of the joint,[6],no local toxicity was observed
